Experimental data published in ChEMBL document CHEMBL1201862, “PubChem BioAssay data set” (2004).
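1) Cells in 96-well plates. 2) Compound, 48 h, 5 concentrations. 3) Linear interpolation between surrounding doses. 4) Unreached endpoint = highest concentration. The concentration for 50% growth inhibition is given as GI50.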 Active and inactive are the calls of the source. No stated cut-off is given here; in the data, active = GI50 up to about 1.1 µM and inactive = higher.

Assays:
Experiment in all cases: DTP human tumour cell line panel, 48 h
SNB-75 = system: SNB-75
XF498 = system: XF498
HOP-62 = system: HOP-62
SNB-19 = system: SNB-19
KM12 = system: KM12
HCT-116 = system: HCT-116
A549 = system: A549
EKVX = system: EKVX
ACHN = system: ACHN
COLO 205 = system: COLO 205
M14 = system: M14
LXFL 529 = system: LXFL 529
UO-31 = system: UO-31
SK-OV-3 = system: SK-OV-3
DMS-114 = system: DMS-114
OVCAR-8 = system: OVCAR-8
SK-MEL-28 = system: SK-MEL-28
SK-MEL-2 = system: SK-MEL-2
SNB-78 = system: SNB-78
SW-620 = system: SW-620
OVCAR-4 = system: OVCAR-4
SR = system: SR
NCI-H23 = system: NCI-H23
M19-MEL = system: M19-MEL
HOP-92 = system: HOP-92
SN12C = system: SN12C
KM-20L2 = system: KM-20L2
SF-539 = system: SF-539
RPMI-8226 = system: RPMI-8226
Malme-3M = system: Malme-3M
IGROV-1 = system: IGROV-1
HT-29 = system: HT-29
UACC-62 = system: UACC-62
TK-10 = system: TK-10
NCI-H460 = system: NCI-H460
OVCAR-3 = system: OVCAR-3
CAKI-1 = system: CAKI-1
CCRF-CEM = system: CCRF-CEM
NCI-H522 = system: NCI-H522
MOLT-4 = system: MOLT-4
K562 = system: K562
SF-295 = system: SF-295
A498 = system: A498
U-251 = system: U-251
DMS-273 = system: DMS-273
HCT-15 = system: HCT-15
UACC-257 = system: UACC-257
OVCAR-5 = system: OVCAR-5
SF-268 = system: SF-268
HL-60 = system: HL-60
DLD-1 = system: DLD-1
HCC 2998 = system: HCC 2998
SK-MEL-5 = system: SK-MEL-5
RXF 393 = system: RXF 393
LOX IMVI = system: LOX IMVI
786-0 = system: 786-0

Measured: GI50

CC(=O)c1c(P(=O)(OC(C)C)OC(C)C)nn(-c2ccc([N+](=O)[O-])cc2)c1C
inactive: SNB-75 > 10 µM | XF498 > 100 µM | HOP-62 > 100 µM | SNB-19 > 100 µM | KM12 > 100 µM | HCT-116 > 100 µM | A549 > 100 µM | EKVX > 100 µM | ACHN > 100 µM | COLO 205 > 100 µM | M14 > 100 µM | LXFL 529 > 100 µM | UO-31 > 100 µM | SK-OV-3 > 100 µM | DMS-114 > 100 µM | OVCAR-8 > 100 µM | SK-MEL-28 > 100 µM | SK-MEL-2 > 100 µM | SNB-78 > 100 µM | SW-620 > 100 µM | OVCAR-4 > 100 µM | SR > 100 µM | NCI-H23 > 100 µM | M19-MEL > 100 µM | HOP-92 > 100 µM | SN12C > 100 µM | KM-20L2 > 100 µM | SF-539 > 100 µM | RPMI-8226 > 100 µM | Malme-3M > 100 µM | IGROV-1 > 100 µM | HT-29 > 100 µM | UACC-62 > 100 µM | TK-10 > 100 µM | NCI-H460 > 100 µM | OVCAR-3 > 100 µM | CAKI-1 > 100 µM | CCRF-CEM > 100 µM | NCI-H522 > 100 µM | MOLT-4 > 100 µM | K562 > 100 µM | SF-295 > 100 µM | A498 > 100 µM | U-251 > 100 µM | DMS-273 > 100 µM | UACC-257 > 100 µM | OVCAR-5 > 100 µM | SF-268 > 100 µM | HL-60 > 100 µM | DLD-1 > 100 µM | HCC 2998 > 100 µM | SK-MEL-5 > 100 µM
> 100 µM: HCT-15

CCP(C)(C)=O
inactive: RXF 393 > 100 µM | SNB-75 > 100 µM | XF498 > 100 µM | HOP-62 > 100 µM | SNB-19 > 100 µM | KM12 > 100 µM | A549 > 100 µM | EKVX > 100 µM | ACHN > 100 µM | COLO 205 > 100 µM | M14 > 100 µM | LXFL 529 > 100 µM | UO-31 > 10 µM | SK-OV-3 > 100 µM | DMS-114 > 100 µM | OVCAR-8 > 100 µM | LOX IMVI > 100 µM | SK-MEL-28 > 100 µM | SK-MEL-2 > 100 µM | SNB-78 > 100 µM | SW-620 > 100 µM | OVCAR-4 > 100 µM | NCI-H23 > 100 µM | M19-MEL > 100 µM | SN12C > 100 µM | KM-20L2 > 100 µM | SF-539 > 100 µM | RPMI-8226 > 100 µM | Malme-3M > 100 µM | IGROV-1 > 100 µM | HT-29 > 100 µM | UACC-62 > 100 µM | TK-10 > 100 µM | NCI-H460 > 100 µM | OVCAR-3 > 100 µM | CAKI-1 > 100 µM | 786-0 > 100 µM | CCRF-CEM > 100 µM | MOLT-4 > 100 µM | K562 > 100 µM | SF-295 > 100 µM | A498 > 100 µM | U-251 > 100 µM | DMS-273 > 100 µM | UACC-257 > 100 µM | OVCAR-5 > 100 µM | SF-268 > 100 µM | DLD-1 > 100 µM | HCC 2998 > 100 µM | SK-MEL-5 > 100 µM
> 100 µM: HCT-15
